Assay results as given in patent publication US11485751B2, “Apramycin derivatives” (WAYNE STATE UNIVERSITY, priority 2017, dated 2022).
In brackets after ≈: the same amount, converted by molar mass.

What was measured:
WT clinical isolates = test: MIC broth microdilution, WT; type: cell-based; details: wild type; for MIC: read-out: MIC WT, clinical isolates, IMM Univ. Zurich
How it was run: (§1)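 MICs obtained by broth microdilution following CLSI M07-A10, tested against clinical isolates from the Institute of Medical Microbiology, Univ. Zurich; values in μg/ml.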

[1] = test system: clinical isolates carrying AAC(3)-IV; test: MIC broth microdilution, AAC(3)-IV; type: cell-based; details: for MIC: read-out: MIC AAC(3)-IV
How it was run: as §1

isolates carrying apmA = test: MIC broth microdilution, apmA; type: cell-based; details: apmA resistance gene
How it was run: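 MICs (μg/ml) were determined by CLSI M07-A10 broth microdilution against apmA-carrying clinical isolates from the Institute of Medical Microbiology, University of Zurich.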

bacterial ribosomes = test: in-vitro translation assay, bacterial ribosomes; type: biochemical
How it was run: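 Each ribosome preparation (bacterial, human chimeric as the mitochondrial model, rabbit reticulocyte as the cytosolic model) drives in-vitro translation with the test compound present. Inhibition of translation gives the IC50.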

[2] = test system: human mitochondrial ribosomes; test: in-vitro translation assay, human mitochondrial (human chimeric) ribosomes; type: biochemical
How it was run: (§2)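 Inhibitory potency was determined as IC50 in in-vitro translation systems based on bacterial ribosomes, human chimeric (mitochondrial-type) ribosomes or rabbit reticulocyte (cytosolic) ribosomes.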

[3] = test system: human cytosolic ribosomes; test: in-vitro translation assay, human cytosolic ribosomes; type: biochemical
How it was run: as §2

[4] = test system: AG212, Escherichia coli ATCC25922; test: MIC reference strain AG212; type: cell-based; details: for MIC: Escherichia coli, ATCC25922, read-out: MIC AG212 E. coli
How it was run: (§3)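 MICs were determined by broth microdilution following CLSI guidelines for aerobically growing bacteria.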

[5] = test system: AG215, Klebsiella pneumonia; test: MIC reference strain AG215; type: cell-based; details: for MIC: Klebsiella pneumoniae, read-out: MIC AG215 K. pneumonia
How it was run: as §3

[6] = test system: AG290, Enterobacter cloacae; test: MIC reference strain AG290; type: cell-based; details: for MIC: Enterobacter cloacae, read-out: MIC AG290 E. cloacae
How it was run: as §3

[7] = test system: AG220, Pseudomonas aeruginosa ATCC27853; test: MIC reference strain AG220; type: cell-based; details: for MIC: Pseudomonas aeruginosa, ATCC27853, read-out: MIC AG220 P. aeruginosa
How it was run: as §3

[8] = test system: AG225, Acinetobacter baumannii pittii; test: MIC reference strain AG225; type: cell-based; details: for MIC: Acinetobacter baumannii, read-out: MIC AG225 A. baumannii
How it was run: as §3

[9] = test system: SZ380, Mycobacterium smegmatis; test: MIC reference strain SZ380; type: cell-based; details: for MIC: Mycolicibacterium smegmatis, read-out: MIC SZ380 M. smegmatis
How it was run: as §3

ATCC19977 M. abcessus = test: MIC reference strain ATCC19977; type: cell-based; details: for MIC: read-out: MIC ATCC19977 M. abcessus
How it was run: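 Reported as MIC; method was a CLSI-conforming microdilution in broth.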

AG001 E. coli WT = test: Antibacterial activity, clinical isolate AG001; type: cell-based; set-up: unit not given here
How it was run: (§4)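 MIC values were determined by broth microdilution following the CLSI standard method for dilution susceptibility testing of aerobically growing bacteria.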

AG055 E. coli WT = test: Antibacterial activity, clinical isolate AG055; type: cell-based; set-up: unit not given here
How it was run: as §4

AG003 E. coli AAC(3)-II = test: Antibacterial activity, clinical isolate AG003; type: cell-based; set-up: unit not given here
How it was run: as §4

AG173 E. coli AAC(3)-IV = test: Antibacterial activity, clinical isolate AG173; type: cell-based
How it was run: as §4

AG163 E. coli APH(3′)-I = test: Antibacterial activity, clinical isolate AG163; type: cell-based; set-up: unit not given here
From the text: (§5) Minimal inhibitory concentrations (MIC) have been determined by broth microdilution assays (CLSI. Methods for Dilution Antimicrobial Susceptibility Tests for Bacteria That Grow Aerobically; Approved Standard—Tenth Edition. CLSI document M07-A10. Wayne, Pa.: Clinical and Laboratory Standards Institute; 2015.).
Table 4 and 5 show the antibacterial activity of the compounds of the invention against bacterial reference strains (table 4) and against representative clinical isolates (table 5).

AG038 MRSA = test: Antibacterial activity, clinical isolate AG038; type: cell-based; set-up: unit not given here
How it was run: as §4

[10] = test system: AG039 MRSA AAC(6′)-I ANT(4′)-I; test: Antibacterial activity, clinical isolate AG039; type: cell-based
How it was run: as §4

[11] = test system: AG042 MRSA AAC(6′)-I ANT(4′)-I APH(2′); test: Antibacterial activity, clinical isolate AG042; type: cell-based
How it was run: as §4

AG031 P. aer. APH(3′)-II = test: Antibacterial activity, clinical isolate AG031; type: cell-based; set-up: unit not given here
How it was run: as §4

AG032 P. aer. APH(3′)-II = test: Antibacterial activity, clinical isolate AG032; type: cell-based; set-up: unit not given here
How it was run: as §4

[12] = test system: AG033 P. aer. APH(3′)-II AAC(6′)-I; test: Antibacterial activity, clinical isolate AG033; type: cell-based; set-up: unit not given here
How it was run: as §4

[13] = test system: Engineered E. coli pH430 WT; test: Activity, engineered E. coli pH430 WT; type: cell-based; set-up: unit not given here; details: wild type
How it was run: (§6)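 CLSI M07-A10 broth microdilution method used; values reported are minimal inhibitory concentrations.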

[14] = test system: Engineered E. coli AG103 armA; test: Activity against G1405-methylated 16S-rRNA, E. coli AG103 armA; type: cell-based
From the text: as §5

[15] = test system: Engineered E. coli pH424 armA; test: Activity against G1405-methylated 16S-rRNA, E. coli pH424 armA; type: cell-based
How it was run: as §6

[16] = test system: Engineered E. coli pH425 rmtB; test: Activity against G1405-methylated 16S-rRNA, E. coli pH425 rmtB; type: cell-based
How it was run: as §6

[17] = test system: Engineered E. coli pH426 rmtC; test: Activity against G1405-methylated 16S-rRNA, E. coli pH426 rmtC; type: cell-based
How it was run: as §6

[18] = test system: Engineered E. coli pH427 rmtF; test: Activity against G1405-methylated 16S-rRNA, E. coli pH427 rmtF; type: cell-based
How it was run: as §6

[19] = test system: E. coli AG153 AAC(3)-II APH(3′)-II rmtB; test: Activity against G1405-methylated 16S-rRNA, clinical isolate AG153; type: cell-based; set-up: unit not given here
From the text: as §5

[20] = test system: K. pneum. AG269 AAC(3)-II AAC(6′)-I rmtB; test: Activity against G1405-methylated 16S-rRNA, clinical isolate AG269; type: cell-based
From the text: as §5

[21] = test system: Enterob. AG302 AAC(3)-II AAC(6′)-I rmtC; test: Activity against G1405-methylated 16S-rRNA, clinical isolate AG302; type: cell-based
From the text: as §5

[22] = test system: A baum. AG227 APH(3′)-I armA; test: Activity against G1405-methylated 16S-rRNA, clinical isolate AG227; type: cell-based
From the text: as §5

SMILES: CNC1C(OC2OC(CO)C(N)C(O)C2O)OC2CC(N)C(OC3C(N)CC(NC(=O)C(O)CCN)C(O)C3O)OC2C1O (stereo not drawn) [DC176]
- MIC WT (WT clinical isolates; clinical isolates, IMM Univ. Zurich): 2 µg/mL (≈ 3.12 µM)
- MIC AAC(3)-IV ([1]; clinical isolates, IMM Univ. Zurich, AAC(3)-IV): 4 µg/mL (≈ 6.24 µM)
- MIC apmA (isolates carrying apmA): 16 µg/mL (≈ 25 µM)
- IC50 (bacterial ribosomes): 0.11 µM
- IC50 [2]: 166 µM
- IC50 [3]: 326 µM
- MIC AG212 E. coli ([4]; reference strain ATCC25922): 2 to 4 µg/mL
- MIC AG215 K. pneumonia ([5]; reference strain): 2 µg/mL
- MIC AG290 E. cloacae ([6]; reference strain): 4 µg/mL
- MIC AG220 P. aeruginosa ([7]; reference strain ATCC27853): 16 µg/mL
- MIC AG225 A. baumannii ([8]; reference strain): 8 µg/mL
- MIC SZ380 M. smegmatis ([9]; reference strain): 0.5 µg/mL
- MIC ATCC19977 M. abcessus (ATCC19977 M. abcessus; reference strain): 2 µg/mL (≈ 3.12 µM)
- Antibacterial activity AG001 E. coli WT (AG001 E. coli WT): 4
- Antibacterial activity AG055 E. coli WT (AG055 E. coli WT): 8
- Antibacterial activity AG003 E. coli AAC(3)-II (AG003 E. coli AAC(3)-II): 4
- Antibacterial activity AG173 E. coli AAC(3)-IV (AG173 E. coli AAC(3)-IV): 2-4
- Antibacterial activity AG163 E. coli APH(3′)-I (AG163 E. coli APH(3′)-I): 4
- Antibacterial activity AG038 MRSA (AG038 MRSA): 4-8
- Antibacterial activity AG039 MRSA AAC(6′)-I ANT(4′)-I [10]: 4-8
- Antibacterial activity AG042 MRSA AAC(6′)-I ANT(4′)-I APH(2′) [11]: 8
- Antibacterial activity AG031 P. aer. APH(3′)-II (AG031 P. aer. APH(3′)-II): 16
- Antibacterial activity AG032 P. aer. APH(3′)-II (AG032 P. aer. APH(3′)-II): 32
- Antibacterial activity AG033 P. aer. APH(3′)-II AAC(6′)-I [12]: >32
- Activity E. coli pH430 WT [13]: 2
- Activity E. coli AG103 armA [14]: 0.25-0.5
- Activity E. coli pH424 armA [15]: 2
- Activity E. coli pH425 rmtB [16]: 2
- Activity E. coli pH426 rmtC [17]: 4
- Activity E. coli pH427 rmtF [18]: 4
- Activity E. coli AG153 AAC(3)-II APH(3′)-II rmtB [19]: 4
- Activity K. pneum. AG269 AAC(3)-II AAC(6′)-I rmtB [20]: 2
- Activity Enterob. AG302 AAC(3)-II AAC(6′)-I rmtC [21]: 2
- Activity A baum. AG227 APH(3′)-I armA [22]: 2

SMILES: CN[C@H]1C(O)C2O[C@H](O[C@@H]3C(N)C[C@@H](N)[C@@H](O)[C@H]3OCC(O)CN)C(N)C[C@@H]2O[C@@H]1O[C@H]1OC(CO)[C@@H](N)[C@H](O)C1O (stereo partly drawn) [DC209]
- MIC (WT clinical isolates): 2 to 4 µg/mL (≈ 3.26 to 6.53 µM)
- MIC [1]: 8 µg/mL (≈ 13.1 µM)
- MIC (isolates carrying apmA): 64 to 128 µg/mL (≈ 104 to 209 µM)
- IC50 (bacterial ribosomes): 0.04 µM
- IC50 [2]: 146 µM
- IC50 [3]: 105 µM
- MIC [4]: 2 to 4 µg/mL
- MIC [5]: 1 µg/mL
- MIC [6]: 1 µg/mL
- MIC [7]: 2 to 4 µg/mL
- MIC [8]: 4 µg/mL
- MIC [9]: 0.125 µg/mL
- MIC (ATCC19977 M. abcessus): 0.5 to 1 µg/mL (≈ 0.816 to 1.63 µM)
- Antibacterial activity AG001 E. coli WT (AG001 E. coli WT): 2
- Antibacterial activity AG173 E. coli AAC(3)-IV (AG173 E. coli AAC(3)-IV): 32
- Antibacterial activity AG163 E. coli APH(3′)-I (AG163 E. coli APH(3′)-I): 4
- Antibacterial activity AG038 MRSA (AG038 MRSA): 1-2
- Antibacterial activity AG031 P. aer. APH(3′)-II (AG031 P. aer. APH(3′)-II): 4
- Activity E. coli pH430 WT [13]: 2-4
- Activity E. coli pH424 armA [15]: 2
- Activity E. coli AG153 AAC(3)-II APH(3′)-II rmtB [19]: 2-4
- Activity K. pneum. AG269 AAC(3)-II AAC(6′)-I rmtB [20]: 1
- Activity Enterob. AG302 AAC(3)-II AAC(6′)-I rmtC [21]: 2
- Activity A baum. AG227 APH(3′)-I armA [22]: 2-4

SMILES: CNC1C(O)C2O[C@H](O[C@@H]3C(N)C[C@@H](N)[C@@H](O)[C@H]3OCC(O)CO)C(N)C[C@@H]2O[C@@H]1O[C@H]1OC(CO)[C@@H](N)[C@H](O)C1O (stereo partly drawn) [DC208]
- MIC (WT clinical isolates): 4 to 8 µg/mL (≈ 6.52 to 13 µM)
- MIC [1]: 64 µg/mL (≈ 104 µM)
- MIC (isolates carrying apmA): > 128 µg/mL
- IC50 (bacterial ribosomes): 0.21 µM
- IC50 [2]: 434 µM
- IC50 [3]: > 1000 µM
- MIC [4]: 8 µg/mL
- MIC [5]: 4 µg/mL
- MIC [6]: 4 µg/mL
- MIC [7]: 16 to 32 µg/mL
- MIC [8]: 16 µg/mL
- MIC [9]: 0.5 µg/mL
- MIC (ATCC19977 M. abcessus): 2 µg/mL (≈ 3.26 µM)
- Antibacterial activity AG001 E. coli WT (AG001 E. coli WT): 8
- Antibacterial activity AG173 E. coli AAC(3)-IV (AG173 E. coli AAC(3)-IV): >64
- Antibacterial activity AG038 MRSA (AG038 MRSA): 8-16
- Antibacterial activity AG031 P. aer. APH(3′)-II (AG031 P. aer. APH(3′)-II): 32
- Activity E. coli pH430 WT [13]: 4-8
- Activity E. coli pH424 armA [15]: 2
- Activity E. coli AG153 AAC(3)-II APH(3′)-II rmtB [19]: 8
- Activity K. pneum. AG269 AAC(3)-II AAC(6′)-I rmtB [20]: 4
- Activity Enterob. AG302 AAC(3)-II AAC(6′)-I rmtC [21]: 4
- Activity A baum. AG227 APH(3′)-I armA [22]: 8
